Data from US11952349B2, “Anti-cancer nuclear hormone receptor-targeting compounds” (Nuvation Bio Inc., priority 2019, dated 2024).
Like-named read-outs stand apart in the source and are kept apart here.

Molecular target: T1, AR, cytosol from LnCaP cells (Homo sapiens, UniProt P10275, T878A)
T1 construct: AR in LNCaP cytosol was used; endogenous in cells; host or cells: LNCaP cells (cytosol)
T1 sequence (P10275 1-920 T878A): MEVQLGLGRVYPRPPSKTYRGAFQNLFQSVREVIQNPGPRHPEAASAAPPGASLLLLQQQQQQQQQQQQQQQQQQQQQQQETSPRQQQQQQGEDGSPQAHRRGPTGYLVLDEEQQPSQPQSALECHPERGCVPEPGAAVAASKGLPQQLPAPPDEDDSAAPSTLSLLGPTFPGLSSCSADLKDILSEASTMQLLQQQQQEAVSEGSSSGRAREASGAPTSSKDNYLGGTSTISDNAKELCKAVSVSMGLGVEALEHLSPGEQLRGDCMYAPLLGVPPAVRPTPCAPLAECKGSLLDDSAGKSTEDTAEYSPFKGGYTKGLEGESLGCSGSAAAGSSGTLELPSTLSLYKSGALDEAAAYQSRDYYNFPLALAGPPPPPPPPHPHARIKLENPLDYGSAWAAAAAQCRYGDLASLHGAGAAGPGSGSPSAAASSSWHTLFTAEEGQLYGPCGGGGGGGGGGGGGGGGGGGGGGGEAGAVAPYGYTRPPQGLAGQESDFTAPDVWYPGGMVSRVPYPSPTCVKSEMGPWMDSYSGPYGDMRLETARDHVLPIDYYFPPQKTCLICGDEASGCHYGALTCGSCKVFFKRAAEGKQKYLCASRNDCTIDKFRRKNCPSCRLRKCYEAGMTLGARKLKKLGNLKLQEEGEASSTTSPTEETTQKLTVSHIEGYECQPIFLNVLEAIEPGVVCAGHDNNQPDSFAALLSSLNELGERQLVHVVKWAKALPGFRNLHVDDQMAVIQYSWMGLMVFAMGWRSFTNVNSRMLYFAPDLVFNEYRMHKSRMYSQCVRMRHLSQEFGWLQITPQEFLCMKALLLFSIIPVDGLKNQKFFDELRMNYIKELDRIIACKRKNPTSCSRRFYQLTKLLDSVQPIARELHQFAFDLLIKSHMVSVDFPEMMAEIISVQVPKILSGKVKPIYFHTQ
Assay: AR binding assay, 3H-R1881 (Biological Example 2)
Method: AR binding assay: To assess AR binding, test compound (top dose […], 4 fold serial dilution, 8 point dose response) and control (progesterone) were transferred to the assay plate. Cytosol from LnCaP cells was added to the plate, followed by addition of radiolabeled ^3H-R1881 at a final concentration of 1 nM. The plate was sealed, and the reaction was incubated at 300 rpm at 4° C. for 24 hrs. Radioligand absorption buffer (10 mM Tris-HCl, pH 7.4; 1.5 mM EDTA; 1 mM DTT; 0.25% charcoal; 0.0025% dextran) was then added to the plate, mixed, and incubated at 4° C. for 15 minutes. The plate was then centrifuged at 3000 rpm for 30 minutes at 4° C. The supernatant was transferred to the scint-tube and Tri-carb was used for scintillation counting. The data was analyzed using GraphPadPrism v5.0 and binding IC50 was determined as the concentration where 50% inhibition of radioligand binding was observed.

[1] = Table 8, 3H-R1881 1 nM, read-out: AR binding

SMILES	IC50	IC50 [1]	further results
C[C@]12C[C@H](CCCCCC(=O)N3CCN(C(=O)c4cc(Cc5n[nH]c(=O)c6ccccc56)ccc4F)CC3)C3=C4CCC(=O)C=C4CC[C@H]3[C@@H]1CCC2O (stereo partly drawn) [Compound 138, 4-(4-fluoro-3-(4-(6-((8S,11S,13S,14S)-17-hydroxy-13-methyl-3-oxo-2,3,6,7,8,11,12,13,14,15,16,17-dodecahydro-1H-cyclopenta[a]phenanthren-11-yl)hexanoyl)piperazine-1-carbonyl)benzyl)phthalazin-1(2H)-one]	0.01 to 0.1 µM		
CC#C[C@]1(O)CC[C@H]2[C@@H]3CCC4=CC(=O)CCC4=C3[C@@H](c3ccc(N(C)CCCCCC(=O)N4CCN(C(=O)c5cc(Cc6n[nH]c(=O)c7ccccc67)ccc5F)CC4)cc3)C[C@@]21C [Compound 135, 4-(4-fluoro-3-(4-(6-((4-((8S,11R,13S,14S,17S)-17-hydroxy-13-methyl-3-oxo-17-(prop-1-ynyl)-2,3,6,7,8,11,12,13,14,15,16,17-dodecahydro-1H-cyclopenta[a]phenanthren-11-yl)phenyl)(methyl)amino)hexanoyl)piperazine-1-carbonyl)benzyl)phthalazin-1(2H)-one]		0.01 to 0.1 µM	
CC(=O)O[C@]1(C(C)=O)CC[C@H]2[C@@H]3CCC4=CC(=O)CCC4=C3[C@@H](c3ccc(N(C)CCCCCC(=O)NCCOCCOCC(=O)N4CCN(C(=O)c5cc(Cc6n[nH]c(=O)c7ccccc67)ccc5F)CC4)cc3)C[C@@]21C [Compound 1384, (8S,11R,13S,14S,17R)-17-acetyl-11-(4-((6-(2-(2-(2-(4-(2-fluoro-5-((4-oxo-3,4-dihydrophthalazin-1-yl)methyl)benzoyl)piperazin-1-yl)-2-oxoethoxy)ethoxy)ethylamino)-6-oxohexyl)(methyl)amino)phenyl)-13-methyl-3-oxo-2,3,6,7,8,11,12,13,14,15,16,17-dodecahydro-1H-cyclopenta[a]phenanthren-17-yl acetate]		< 0.01 µM	
Cn1ncnc1C1c2n[nH]c(=O)c3cc(F)cc(c23)N[C@@H]1c1ccc(NC(=O)CCCCCO[C@@H]2CC[C@H]3[C@@H]4CC[C@H]5CCCC[C@]5(C)[C@H]4CC[C@]23C)cc1 (stereo partly drawn) [Compound 1128, 6-((5R,8R,9S,10S,13S,14S,17R)-10,13-dimethylhexadecahydro-1H-cyclopenta[a]phenanthren-17-yloxy)-N-(4-((8S)-5-fluoro-9-(1-methyl-1H-1,2,4-triazol-5-yl)-3-oxo-3,7,8,9-tetrahydro-2H-pyrido[4,3,2-de]phthalazin-8-yl)phenyl)hexanamide]			IC50 (Table 7, 3H-R1881 1 nM, read-out: AR binding): 1 to 10 µM
C[C@@]12CCC(=O)C[C@H]1CC[C@H]1[C@H]2CC[C@]2(C)[C@@H]1CC[C@H]2OCCCCCCNC(=O)c1cc(Cc2n[nH]c(=O)c3ccccc23)ccc1F (stereo in doubt) [Compound 1426, N-(6-((5R,8S,9R,10R,13R,14R,17R)-10,13-dimethyl-3-oxohexadecahydro-1H-cyclopenta[a]phenanthren-17-yloxy)hexyl)-2-fluoro-5-((4-oxo-3,4-dihydrophthalazin-1-yl)methyl)benzamide]	0.1 to 1 µM		
C[C@]12CC[C@H]3[C@@H](CCC4=CC(=O)CC[C@@]43C)[C@@H]1CC[C@@H]2C(=O)COCCCCCC(=O)N1CCN(C(=O)c2cc(Cc3n[nH]c(=O)c4ccccc34)ccc2F)CC1 [Compound 1386, 4-(3-(4-(6-(2-((8S,9S,10R,13S,14S,17S)-10,13-dimethyl-3-oxo-2,3,6,7,8,9,10,11,12,13,14,15,16,17-tetradecahydro-1H-cyclopenta[a]phenanthren-17-yl)-2-oxoethoxy)hexanoyl)piperazine-1-carbonyl)-4-fluorobenzyl)phthalazin-1(2H)-one]		0.01 to 0.1 µM	
CC(=O)O[C@]1(C(C)=O)CC[C@H]2[C@@H]3CCC4=CC(=O)CCC4=C3[C@@H](c3ccc(N(C)CCCCCC(=O)N4CCN(C(=O)c5cc(Cc6n[nH]c(=O)c7ccccc67)ccc5F)CC4)cc3)C[C@@]21C [Compound 1378, (8S,11R,13S,14S,17R)-17-acetyl-11-(4-((6-(4-(2-fluoro-5-((4-oxo-3,4-dihydrophthalazin-1-yl)methyl)benzoyl)piperazin-1-yl)-6-oxohexyl)(methyl)amino)phenyl)-13-methyl-3-oxo-2,3,6,7,8,11,12,13,14,15,16,17-dodecahydro-1H-cyclopenta[a]phenanthren-17-yl acetate]		< 0.01 µM	
CC#C[C@]1(O)CC[C@H]2[C@@H]3CCC4=CC(=O)CCC4=C3[C@@H](c3ccc(N(C)CCCCCC(=O)NCCOCCOCC(=O)N4CCN(C(=O)c5cc(Cc6n[nH]c(=O)c7ccccc67)ccc5F)CC4)cc3)C[C@@]21C [Compound 1429, N-(2-(2-(2-(4-(2-fluoro-5-((4-oxo-3,4-dihydrophthalazin-1-yl)methyl)benzoyl)piperazin-1-yl)-2-oxoethoxy)ethoxy)ethyl)-6-((4-((8S,11R,13S,14S,17S)-17-hydroxy-13-methyl-3-oxo-17-(prop-1-ynyl)-2,3,6,7,8,11,12,13,14,15,16,17-dodecahydro-1H-cyclopenta[a]phenanthren-11-yl)phenyl)(methyl)amino)hexanamide]		0.01 to 0.1 µM	
C[C@]12Cc3cn[nH]c3C[C@@H]1CC[C@@H]1[C@@H]2CC[C@]2(C)[C@@H](OCCCCCC(=O)N3CCN(C(=O)c4cc(Cc5n[nH]c(=O)c6ccccc56)ccc4F)CC3)CC[C@@H]12 [Compound 1394, 4-(3-(4-(6-(((1S,3aS,3bR,5aS,10aS,10bS,12aS)-10a,12a-dimethyl-1,2,3,3a,3b,4,5,5a,6,7,10,10a,10b,11,12,12a-hexadecahydrocyclopenta[5,6]naphtho[1,2-f]indazol-1-yl)oxy)hexanoyl)piperazine-1-carbonyl)-4-fluorobenzyl)phthalazin-1(2H)-one]	0.1 to 1 µM		
